Experiment [1] addresses T1, Delta-type opioid receptor (Rattus norvegicus, UniProt P33533). The experiment can be described thus: biochemical. The class given is cell-based, CHO.
Description: Binding affinity against rat Opioid receptor delta 1 expressed in CHO cells determined by competitive inhibition of 1 nM [3H]DPDPE.
For experiment [2], the target named is T1, Delta-type opioid receptor. The experiment can be described thus: Inhibitory activity against forskolin-stimulated cAMP production in chinese hamster ovary cells expressing Opioid receptor delta 1. It is filed as functional, cell-based, CHO. On the technique in general: Changes in cAMP serve as a functional read-out for many G protein-coupled receptors.

A further experiment has as its target Mu-type opioid receptor (Rattus norvegicus, UniProt P33535). The experiment can be described thus: biochemical. It is filed as cell-based, CHO.
Experiment [3] concerns the target Kappa-type opioid receptor (Rattus norvegicus, UniProt P34975). The experiment can be described thus: biochemical. The class given is cell-based, CHO.

pIC50: −log10 of the molar value. Starred links: 1 amine or outer side, 2 acyl side, 3 side chain; linkers in the order of their positions; H or OH if unused. Non-standard residues stand in square brackets, D forms with d. Residues, ends and D or L forms follow the SMILES beside them. X1 = O=C([C@@]1(N[*:1])CCCC[C@@H]1O)[*:2]; X2 = O=C([C@@]1(N[*:1])CCCC[C@H]1O)[*:2]; X3 = O=C([C@@]1(N[*:1])CCC[C@@H]1O)[*:2]; X4 = O=C([C@]1(N[*:1])CCC[C@H]1O)[*:2]

Chain of Kappa-type opioid receptor (P34975 whole entry): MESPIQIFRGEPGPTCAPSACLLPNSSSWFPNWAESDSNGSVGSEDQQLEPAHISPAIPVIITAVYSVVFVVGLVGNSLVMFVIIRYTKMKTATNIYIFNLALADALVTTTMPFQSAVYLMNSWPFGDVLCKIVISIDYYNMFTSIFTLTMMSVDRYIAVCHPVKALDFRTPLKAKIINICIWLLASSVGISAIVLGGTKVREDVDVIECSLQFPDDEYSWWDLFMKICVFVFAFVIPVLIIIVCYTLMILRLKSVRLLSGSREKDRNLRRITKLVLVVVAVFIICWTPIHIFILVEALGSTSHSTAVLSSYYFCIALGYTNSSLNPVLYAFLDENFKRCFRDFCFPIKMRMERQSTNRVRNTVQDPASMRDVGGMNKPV
T1 sequence (P33533 whole entry): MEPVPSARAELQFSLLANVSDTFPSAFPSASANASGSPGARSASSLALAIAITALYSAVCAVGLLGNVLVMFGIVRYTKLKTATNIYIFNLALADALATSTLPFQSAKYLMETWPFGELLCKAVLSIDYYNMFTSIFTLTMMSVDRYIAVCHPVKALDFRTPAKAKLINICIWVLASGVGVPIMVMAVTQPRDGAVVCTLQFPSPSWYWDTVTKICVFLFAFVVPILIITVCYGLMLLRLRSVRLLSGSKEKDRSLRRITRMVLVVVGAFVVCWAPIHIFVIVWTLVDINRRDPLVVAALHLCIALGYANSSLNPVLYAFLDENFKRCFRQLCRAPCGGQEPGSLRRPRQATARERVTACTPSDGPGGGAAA
Chain of Mu-type opioid receptor (P33535 whole entry): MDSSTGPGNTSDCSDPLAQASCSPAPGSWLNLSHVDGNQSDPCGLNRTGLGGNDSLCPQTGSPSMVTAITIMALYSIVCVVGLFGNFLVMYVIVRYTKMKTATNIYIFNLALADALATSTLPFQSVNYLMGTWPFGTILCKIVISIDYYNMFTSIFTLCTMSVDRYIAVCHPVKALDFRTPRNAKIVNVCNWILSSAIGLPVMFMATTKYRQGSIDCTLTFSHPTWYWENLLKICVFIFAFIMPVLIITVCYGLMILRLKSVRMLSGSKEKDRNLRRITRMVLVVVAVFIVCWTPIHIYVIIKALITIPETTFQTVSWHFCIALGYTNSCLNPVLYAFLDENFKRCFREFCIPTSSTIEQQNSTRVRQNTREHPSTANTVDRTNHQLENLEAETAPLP

In general, pIC50 refers to −log10 of the IC50, conventionally taken in molar units. The low end stands for a high IC50, the high end for a low IC50. Take `CC(C)C[C@@H](NC(=O)[C@@H](Cc1ccccc1)NC(=O)CNC(=O)[C@@](C)(CO)NC(=O)[C@H](N)Cc1ccc(O)cc1)C(=O)O`: the negative logarithm of the IC50 (pIC50) is 9.40 in experiment [1] (cho), 10.15 in experiment [2] (cho), 8.20 against Mu-type opioid receptor (cho) and less than 5.00 in experiment [3] (cho).
In the case of `CC(C)C[C@H](NC(=O)[C@H](Cc1ccccc1)NC(=O)CNC(=O)[C@@]1(NC(=O)[C@@H](N)Cc2ccc(O)cc2)CCCC[C@@H]1O)C(=O)O` (H-Y[X1]GFL-OH), the pIC50 was 11.00 in experiment [1], 11.30 in experiment [2], 9.60 at Mu-type opioid receptor and 5.20 in experiment [3].
For `CC(C)C[C@H](NC(=O)[C@H](Cc1ccccc1)NC(=O)CNC(=O)C(C)(C)NC(=O)[C@@H](N)Cc1ccc(O)cc1)C(=O)O` (single isomer, unassigned) the same measures were 7.30, 6.85, 6.80 and less than 5.00.
For `CC(C)C[C@H](NC(=O)[C@H](Cc1ccccc1)NC(=O)CNC(=O)[C@@]1(NC(=O)[C@@H](N)Cc2ccc(O)cc2)CCCC[C@H]1O)C(=O)O` (H-Y[X2]GFL-OH) the same measures were 9.00, 8.70, 7.30 and less than 5.00.
In the case of `CC(C)C[C@@H](NC(=O)[C@@H](Cc1ccccc1)NC(=O)CNC(=O)[C@](C)(CO)NC(=O)[C@H](N)Cc1ccc(O)cc1)C(=O)O`, the pIC50 was 5.60 in experiment [1] (cho), 5.30 in experiment [2] (cho), less than 5.00 against Mu-type opioid receptor (cho) and less than 5.00 in experiment [3] (cho).
Take `CC(C)C[C@H](NC(=O)[C@H](Cc1ccccc1)NC(=O)CNC(=O)[C@@]1(NC(=O)[C@@H](N)Cc2ccc(O)cc2)CCC[C@@H]1O)C(=O)O` (H-Y[X3]GFL-OH): the pIC50 in experiment [1] is 10.40; in experiment [2] it was 11.00; on Mu-type opioid receptor it was 8.60; in experiment [3], less than 5.00.
With `CC(C)C[C@H](NC(=O)[C@H](Cc1ccccc1)NC(=O)CNC(=O)[C@]1(NC(=O)[C@@H](N)Cc2ccc(O)cc2)CCC[C@H]1O)C(=O)O` (H-Y[X4]GFL-OH), the pIC50 in experiment [2] was 8.00; at Mu-type opioid receptor, 6.49; in experiment [3], less than 5.00.

Source of the values: ChEMBL document CHEMBL1130911 (Bioorg Med Chem Lett, 1998).
